What follows are compounds tested against T1, MAGE-A11:PCF11 interaction (GST-MAGE-A11 and FAM-PCF11_4) (Homo sapiens, UniProt P43364) (assay: TR-FRET primary / single point screen at 15 µM). Details: single point TR-FRET screening of 797 quinoline compounds against MAGE-A11:PCF11.
T1 construct: GST-MAGE-A11 MHD (human MAGE-A11 MHD amino acid 218-429); made in house; host or cells: E. coli BL21(DE3)
T1 sequence (P43364 218-429): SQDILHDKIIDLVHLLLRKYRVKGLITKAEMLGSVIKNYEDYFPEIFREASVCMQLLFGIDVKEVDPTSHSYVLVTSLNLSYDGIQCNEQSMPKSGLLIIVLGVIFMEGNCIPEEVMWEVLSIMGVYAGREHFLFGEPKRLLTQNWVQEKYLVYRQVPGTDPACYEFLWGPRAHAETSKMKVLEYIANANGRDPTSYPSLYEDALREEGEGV
Type: binding
Method: The TR-FRET assay buffer with a formula of 50 mM Tris pH 7.5, 20 mM MgCl2, 0.1 mg/ml BSA and 1 mM DTT was freshly prepared before each experiment. All TR-FRET assays were performed in black 384-well plates with 20 µl/well assay volume in the TR-FRET assay buffer at room temperature (~25 °C). All peptides or compounds were solubilized in DMSO. To test the competitive activity of peptides or compounds against the interaction between GST-MAGE-A11 MHD and FAM-PCF11_4 peptide, 10 µl/well peptide or compound at specified concentration was dispensed into a black 384-well low volume plate, followed by 5 µl/well FAM-PCF11_4 (800 nM), 5 µl/well Tb-anti-GST (20 nM), and GST-MAGE-A11 MHD (20 nM). The assay components in each well was then mixed by shaking the plate on an IKA MTS 2/4 digital microtiter plate shaker (IKA Works; Wilmington, NC, USA) for 1 min. The plate was further centrifuged in an Eppendorf 5810 centrifuge with an A-4-62 swing-bucket rotor (Eppendorf AG, Hamburg, Germany) at 201 g for 30 s. The plate was then incubated for 90 min with a lid to avoid light exposure to the assay components. After incubation, the fluorescent emission signals at 520 nm and 490 nm channels of individual wells were measured with a PHERAstar FS plate reader (BMG Labtech; Durham, NC, USA) by using a 340 nm excitation filter, 100 µs delay time, and 200 µs integration time. The TR-FRET fluorescence emission ratio (TR-FRET signal) for each well was presented as 10,000 × 520 nm/490 nm, which was used directly for curve fitting, or further converted to %Inhibition based on the respective positive and negative controls. The graphic software GraphPad Prism 4.81 (GraphPad Software; La Jolla, CA, USA) was used to generate curves and derive IC50 values of tested peptides or compounds, if applicable. TR-FRET screen for identifying MAGE-A11 small molecule inhibitors was performed as follows. The primary one-concentration screening and subsequent 10 or 20-concentration dose-response tests were accomplished with an automated High Throughput Screening system (HighRes Biosolutions, Beverly, MA)[30]. In the primary screening, 15 µl/well FAM-PCF11_4 (267 nM) was first dispensed with a Multidrop Combi Reagent Dispenser (Thermo Fisher Scientific, Waltham, MA) to black 384-well low-volume assay plates. The plates were spun down with a Velocity11 VSpin microplate centrifuge (Agilent Technologies, Santa Clara, CA). In total, 30 nl/well of 10 mM compound/DMSO solutions, or DMSO alone, were transferred from compound plates (the St. Jude FDA drug and bioactive library, Drug-like library and Lead-like library) or a control plate to the assay plates with a Pin Tool (V&P Scientific, San Diego, CA). The compounds were arrayed in columns 3–12 and columns 15–24 of compound plates. The controls were arrayed in columns 1, 2, 13, and 14 of a compound plate. In all, 5 µl/well Tb-anti-GST (20 nM) and GST-MAGE-A11 (20 nM) or 5 µl/well Tb-anti-GST (20 nM) alone was then dispensed to selected wells with a Multidrop Combi Reagent Dispenser. The final assay volume was 20 µl/well. […] The final tested compound concentration was 15 µM. The final FAM-PCF11_4 concentration was 200 nM and the final Tb-anti-GST concentration was 5 nM. The final GST-MAGE-A11 concentration was 5 nM except for those selected positive control wells in which GST-MAGE-A11 was not presented. The plates were then shaken with a big bear shaker (Big Bear Automation, Santa Clara, California) and spun down with the Velocity11 VSpin microplate centrifuge for 20 s. The plates were then incubated at room temperature in a Liconic incubator (Liconic US, Woburn, MA) for 90 min. The TR-FRET signals for individual wells were measured with a PHERAstar FS plate reader. The %Inhibition of each tested inhibitor was calculated by using Eq. 1. Those inhibitors with %Inhibition >30% in the primary screening were selected for further dose-response test, along with additional newly synthesized compounds. […]

Structure (SMILES) | percent inhibition (TR-FRET)
O=S(=O)(c1ccccc1)c1cnc2ccc(Cl)cc2c1N1CCN(c2ccccc2)CC1 [SJ000083977] | -15.701
CCOC(=O)c1cnc2c(C)c(C)ccc2c1NCCN(C)C [SJ000134078] | 8.5376
CCOC(=O)c1cnc2ccc(OCC)cc2c1NCCN1CCOCC1 [SJ000027289] | 5.291
COc1ccc(N2CCN(c3c(S(=O)(=O)c4ccc(C)cc4)cnc4ccc(Cl)cc34)CC2)cc1 [SJ000117072] | -5.838
CCc1ccc2ncc(S(=O)(=O)c3ccccc3)c(N3CCN(C)CC3)c2c1 [SJ000083946] | -6.249
CC(=O)Nc1ccc(S(=O)(=O)N2CCN(c3ccnc4cc(Cl)ccc34)CC2)cc1 [SJ000193862] | -16.1911
COc1ccc2nc3cc(Cl)ccc3c(NCCCNCC3CC3)c2c1 [SJ000361087] | -502.358
CCOC(=O)c1cnc2c(CC)cccc2c1NCCN1CCOCC1 [SJ000279714] | -6.103
COc1ccc2ncc(S(=O)(=O)c3ccccc3)c(N3CCN(Cc4ccccc4)CC3)c2c1 [SJ000247248] | -71.1577
CCCN(CCCNc1c2ccc(Cl)cc2nc2ccc(OC)cc12)Cc1ccc([N+](=O)[O-])s1 [SJ000522735] | -154.43
Clc1ccc2c(NCCCCN(Cc3ccccc3)Cc3ccc(Br)s3)ccnc2c1 [SJ000312688] | 22.0375
Clc1ccc2c(NCCCCN(Cc3ccccc3)Cc3ccc4c(c3)OCO4)ccnc2c1 [SJ000522723] | 16.5062
CCC(CC)CNCCCNc1c2ccc(Cl)cc2nc2ccc(OC)cc12 [SJ000361092] | -427.368
Cc1cc(NC(=O)CN2CCN(C(=O)c3ccco3)CC2)c2ccccc2n1 [SJ000111679] | -1.072
COC(=O)c1ccc(CNCCCNc2c3ccc(Cl)cc3nc3ccc(OC)cc23)cc1 [SJ000522957] | -133.032
CCOc1ccc2ncc(S(=O)(=O)c3ccccc3)c(N3CCN(CC)CC3)c2c1 [SJ000083959] | 4.534
COc1ccc2nc3cc(Cl)ccc3c(NCCCNCc3ccc(C)s3)c2c1 [SJ000523029] | -304.796
COc1ccccc1N1CCN(c2c(S(=O)(=O)c3ccc(Cl)cc3)cnc3ccc(C)cc23)CC1 [SJ000117070] | -15.3715
Cc1ccc(S(=O)(=O)c2cnc3ccc(F)cc3c2N2CCN(c3ccc(F)cc3)CC2)cc1 [SJ000117061] | -70.4952
Cc1ccc(CN(CCCCNc2ccnc3cc(Cl)ccc23)Cc2ccccc2)s1 [SJ000312687] | 20.7072
C=CCOCC(O)CN1CCN(c2cc(C)nc3ccccc23)CC1 (stereo not shown) [SJ000227652] | -0.207

Same assay, conditions: single point TR-FRET screening of quinoline compounds against MAGE-A11:PCF11; 15 µM

Structure (SMILES) | percent inhibition (TR-FRET)
Oc1c(F)cc(F)cc1CN(CCCNc1ccnc2cc(Cl)ccc12)Cc1ccccc1 [SJ000357504] | 27.6387
CCOC(=O)c1ccc2ncc(C(=O)OCC)c(NCCCN3CCOCC3)c2c1 [SJ000176583] | 11.255
Cc1c(CNCCCNc2ccnc3cc(Cl)ccc23)c(=O)n(-c2ccccc2)n1C [SJ000523058] | 5.584
CCCN(CCCNc1ccnc2cc(Cl)ccc12)Cc1ccc(Cl)cc1Cl [SJ000523043] | 12.0952
CCCN(CCCNc1c2ccc(Cl)cc2nc2ccc(OC)cc12)Cc1cncc(Br)c1 [SJ000522975] | -89.0775
FC(F)(F)c1ccc2c(NCCCNCc3cccnc3)ccnc2c1 [SJ000521042] | 15.0359
CCCN(CCCNc1ccnc2cc(C(F)(F)F)ccc12)Cc1ccc(Cl)cc1Cl [SJ000523078] | 3.83
Clc1ccc2c(NCCCN(Cc3ccccc3)Cc3csc4ccccc34)ccnc2c1 [SJ000520454] | 28.1386
Clc1cccc(Cl)c1Cc1ccc2c(NCCCNCc3ccco3)ccnc2c1 [SJ000311314] | 32.3998
Cc1ccc(CNCCCNc2ccnc3cc(Cl)ccc23)s1 [SJ000311190] | 10.8349
CCCN(CCCNc1ccnc2cc(Cl)ccc12)Cc1ccsc1 [SJ000522744] | 7.824
CCCN(CCCNc1ccnc2cc(C(F)(F)F)ccc12)Cc1nccs1 [SJ000575189] | 8.665
Clc1ccc2c(NCCCN(Cc3ccccc3)Cc3ccoc3)ccnc2c1 [SJ000361170] | 12.8437
CCCN(CCCNc1ccnc2cc(Cl)ccc12)Cc1cccc(C#N)c1 [SJ000522763] | 12.9099
CN(C)c1ccc(CN(CCCNc2ccnc3cc(Cl)ccc23)Cc2ccccc2)cc1 [SJ000522741] | 14.7648
CCCCCN(CCCNc1ccnc2cc(Cl)ccc12)Cc1ccccc1 [SJ000361173] | 26.5568

Structure (SMILES) | percent inhibition (TR-FRET)
CCCN(CCCNc1ccnc2cc(C(F)(F)F)ccc12)CC1CCOC1 (stereo not shown) [SJ000575190] | 1.787
Cc1ccc(CN(CCCNc2ccnc3cc(Cl)ccc23)Cc2ccccc2)o1 [SJ000312669] | 2.84
CCCN(CCCNc1ccnc2cc(C(F)(F)F)ccc12)Cc1c(C)cc(C)cc1C [SJ000361264] | 19.9321
CCOC(=O)c1cnc2ccc(C(=O)OC)cc2c1NCCCN1CCOCC1 [SJ000279665] | 10.7073
FC(F)(F)c1ccc(-c2ccc3c(NCCCNCc4ccco4)ccnc3c2)cc1 [SJ000311278] | 56.2051
CCCN(CCCNc1ccnc2cc(C(F)(F)F)ccc12)Cc1ccc(N(C)C)cc1 [SJ000523077] | 23.7127
COc1ccc2nc3cc(Cl)ccc3c(NCCCNCc3ccc(N(C)C)c4ccccc34)c2c1 [SJ000523028] | -1.532
CCCN(CCCNc1ccnc2cc(Cl)ccc12)Cc1ccc(OC)cc1 [SJ000522756] | 19.1371
CCCN(CCCNc1ccnc2cc(Cl)ccc12)Cc1ccccc1OC(F)(F)F [SJ000357595] | -21.8698
CCCN(CCCNc1c2ccc(Cl)cc2nc2ccc(OC)cc12)Cc1cccc(OC(F)(F)F)c1 [SJ000522967] | 14.4758
Fc1cccc(C(F)(F)F)c1CN(CCCNc1ccnc2cc(Cl)ccc12)Cc1ccccc1 [SJ000520467] | 22.0104
Clc1ccc2c(NCCCN(CCOCc3ccccc3)Cc3ccccc3)ccnc2c1 [SJ000357583] | 13.2411
Cc1cccc(CN(CCCNc2ccnc3cc(Cl)ccc23)Cc2ccccc2)c1 [SJ000361183] | 6.02
COc1ccc(OC(F)(F)F)cc1CN(CCCNc1ccnc2cc(Cl)ccc12)Cc1ccccc1 [SJ000520452] | 20.4443
CC(CCN(CCCNc1ccnc2cc(Cl)ccc12)Cc1ccccc1)c1ccccc1 (stereo not shown) [SJ000311184] | 17.3464

Source: article PMC7529893, “Structural basis for substrate recognition and chemical inhibition of oncogenic MAGE ubiquitin ligases” (Nature Communications, 2020)
